A word on the IC50: it is the concentration at which inhibition is half-maximal.

These results are taken from article PMC7663263 (Molecules, 2020).

Structures are written as SMILES.

One assay addresses T1, S. mansoni TGR (Schistosoma mansoni, UniProt Q962Y6).
T1 construct: made in house; host or cells: E. coli
T1 sequence (Q962Y6 1-598): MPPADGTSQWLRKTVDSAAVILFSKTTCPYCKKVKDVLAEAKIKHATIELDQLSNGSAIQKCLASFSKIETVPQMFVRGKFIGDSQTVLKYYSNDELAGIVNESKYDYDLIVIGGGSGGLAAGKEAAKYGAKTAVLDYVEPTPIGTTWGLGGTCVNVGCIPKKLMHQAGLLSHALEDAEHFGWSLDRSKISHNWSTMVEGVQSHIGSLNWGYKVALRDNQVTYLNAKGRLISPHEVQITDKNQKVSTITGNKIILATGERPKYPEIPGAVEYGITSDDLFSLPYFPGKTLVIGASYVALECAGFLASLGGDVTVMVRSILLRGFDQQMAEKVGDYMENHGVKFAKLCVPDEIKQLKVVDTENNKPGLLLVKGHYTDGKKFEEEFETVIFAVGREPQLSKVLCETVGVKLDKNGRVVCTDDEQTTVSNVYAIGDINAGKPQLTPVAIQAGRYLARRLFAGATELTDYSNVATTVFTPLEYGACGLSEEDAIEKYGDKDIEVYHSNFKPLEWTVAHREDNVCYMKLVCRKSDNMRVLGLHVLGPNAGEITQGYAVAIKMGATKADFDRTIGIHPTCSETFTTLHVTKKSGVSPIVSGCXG
Nature of the assay: biochemical. The note with it: 40 nM enzyme, 3 mM DTNB; after 10 min preincubation; read-out: IC50 S. mansoni TGR, substrate DTNB (original data). The protocol: Enzymes were prepared in E. coli as described. Assays were performed at 25 °C in 0.1 M potassium phosphate (pH 7.4), 10 mM EDTA using 100 μM NADPH and 3 mM dithiobis(2-nitrobenzoic acid) (DTNB). […] The increase in A412 during the first 3 min was recorded upon DTNB addition. The reaction was done in triplicate.

Assay [1] deals with L. infantum MHOM/MA (BE)/67 amastigotes. Nature of the assay: Anti-leishmanial activity, L. infantum amastigotes in primary peritoneal mouse macrophages. The assay is classed as cell-based, Leishmania infantum. To be noted: amastigotes in primary peritoneal mouse macrophages, 5 days; read-out: Leishmania infantum IC50 (µM) ± SD. As for the experimental part:
Anti-leishmanial activity: L. infantum MHOM/MA (BE)/67 amastigotes were collected from the spleen of an infected donor hamster and used to infect primary peritoneal mouse macrophages grown in a 96-well plate. After 2 days outgrowth, 5 × 10^5 amastigotes were added to each well and incubated for 2 h at 37 °C. The compounds were subsequently added and the plates were further incubated for 5 days at 37 °C and 5% CO2. Parasite burdens (mean number of amastigotes/macrophage) were microscopically assessed on 500 cells after Giemsa staining and expressed as a percentage of the blank controls. Miltefosine was included as reference drug. The use of laboratory rodents was carried out in accordance to all mandatory guidelines (EU directives, including the Revised Directive 2010/63/EU on the Protection of Animals used for Scientific Purposes that came into force on 1 January 2013, and the declaration of Helsinki in its latest version) and was approved by the Ethical Committee of the University of Antwerp, Belgium [UA-ECD 2011–77 (17-02-2012 and UA-ECD 2015-90].

In a further assay the test system is O. ochengi adult female. The assay can be described thus: Onchocerca ochengi adult female worm assay (MTT/formazan). The assay is classed as cell-based. To be noted: 10 μM; females assessed by MTT/formazan assay. The protocol: Onchocerca ochengi adult worm assays: For O. ochengi worm assays, subcutaneous nodules containing adult O. ochengi worms were removed from the hides of infected cows collected at abattoirs in Douala, Cameroon. Masses were incubated in 4 mL of complete culture medium (RPMI-1640, 5% newborn calf serum, 200 units/mL penicillin, 200 μg/mL streptomycin and 2.5 μg/mL amphotericin B) in standard 12-well culture plates and maintained in a 37 °C, 5% CO2 incubator overnight during which time the adult males migrated out of the masses while the females remained in the nodules. Compound and control wells (worms in 1% DMSO) were tested in quadruplicate and experiments were repeated twice on different days. Cultures were terminated on day 7. […] Adult female worm viability was assessed on day 7 by the standard MTT/formazan assay in which each nodular mass was placed in a well of a 48-well plate containing 500 μL of 0.5 mg/mL MTT (Sigma-Aldrich) in culture medium. Viability was evaluated visually by the extent to which the female worm mass was stained with MTT. Mean percent inhibition of formazan formation was calculated relative to the negative control worm masses after 7 days in culture.

The subject of assay [2] is T. b. gambiense (ITMAP/1893). The assay can be described thus: Anti-trypanosomal activity, T. b. gambiense trypomastigotes (resazurin). It counts as cell-based, Trypanosoma brucei gambiense. To be noted: 72 h, read-out: T. b. gambiense IC50 (µM) ± SD. The protocol: Anti-trypanosomal activity: T. b. brucei Squib-427 strain (suramin-sensitive) and T. b. gambiense (ITMAP/1893) were cultured at 37 °C and 5% CO2 in HMI-9 medium supplemented with 10% FCS [90]. About 10^4 trypomastigotes/well were added to each well and parasite growth was assessed after 72 h at 37 °C by adding resazurin and reading at ex 550 nm, em 590 nm. Suramin was included as reference drug for T. b. brucei and pentamidine for T. b. gambiense.
In general terms: The colour change of resazurin is a common sign of viable cells or microbes.

In the case of `CC(=O)OCC1OC([S][Au][PH]2(c3ccccc3)C(c3ccccn3)=CC=C2c2ccccn2)C(OC(C)=O)C(OC(C)=O)C1OC(C)=O` [GoPI-sugar, 1-thio-β-D-glucopyranose 2,3,4,6-tetraacetato-S-Au{1-phenyl-2,5-di(2-pyridyl)phosphole}], the half-maximal inhibitory concentration (IC50) is 12.5 nM at S. mansoni TGR, 2.38 µM in assay [1] and 1.11 ± 0.12 µM in assay [2]. In addition, in the assay with O. ochengi adult female, the “% Inhibition of Motility O. ochengi Adult Female Day 7” value is reported as 51%.
